Results reported in patent publication US20120220562A1, “Anti-Viral Compounds” (ABBOTT LABAORATORIES, priority 2011, published 2012).

Test system: HCV 1b-Con1 replicon
Experiment: HCV 1b-Con1 replicon assay in the presence of 5% FBS
Type: cell-based
Conditions: Hepatitis C virus

| Compound | EC50 [nM] |
| --- | --- |
| COC(=O)N[C@H](C(=O)N1CCC[C@H]1c1nc2cc([C@H]3CC[C@H](c4ccc5[nH]c([C@@H]6CCCN6C(=O)[C@@H](NC(=O)OC)C(C)C)nc5c4)N3c3cc(F)c(N4CCOC(c5ccccc5)C4)c(F)c3)ccc2[nH]1)C(C)C (stereo partly drawn) [Example 4.49, methyl {(2S)-1-[(2S)-2-{5-[(2R,5R)-1-[3,5-difluoro-4-(2-phenylmorpholin-4-yl)phenyl]-5-{2-[(2S)-1-{(2S)-2-[(methoxycarbonyl)amino]-3-methylbutanoyl}pyrrolidin-2-yl]-1H-benzimidazol-5-yl}pyrrolidin-2-yl]-1H-benzimidazol-2-yl}pyrrolidin-1-yl]-3-methyl-1-oxobutan-2-yl}carbamate] | < 0.1 |
| COC(=O)N[C@H](C(=O)N1CCC[C@H]1c1nc2cc([C@H]3CC[C@H](c4ccc5[nH]c([C@@H]6CCCN6C(=O)[C@@H](NC(=O)OC)C(C)C)nc5c4)N3c3cc(F)c(N4CCCCC4c4ccccc4)c(F)c3)ccc2[nH]1)C(C)C (stereo partly drawn) [Example 4.50, methyl {(2S)-1-[(2S)-2-{5-[(2R,5R)-1-[3,5-difluoro-4-(2-phenylpiperidin-1-yl)phenyl]-5-{2-[(2S)-1-{(2S)-2-[(methoxycarbonyl)amino]-3-methylbutanoyl}pyrrolidin-2-yl]-1H-benzimidazol-5-yl}pyrrolidin-2-yl]-1H-benzimidazol-2-yl}pyrrolidin-1-yl]-3-methyl-1-oxobutan-2-yl}carbamate] | < 0.1 |
| COC(=O)N[C@H](C(=O)N1CCC[C@H]1c1nc2cc(C3CCC(c4cc5nc([C@@H]6CCCN6C(=O)[C@@H](NC(=O)OC)C(C)C)[nH]c5cc4F)N3c3cc(F)c(N4C[C@@H](C)O[C@@H](C)C4)c(F)c3)c(F)cc2[nH]1)C(C)C (stereo partly shown) [Example 4.51] | < 0.1 |
| COC(=O)N[C@H](C(=O)N1CCC[C@H]1c1nc2cc([C@H]3CC[C@@H](c4cc5nc([C@@H]6CCCN6C(=O)[C@@H](NC(=O)OC)C(C)C)[nH]c5cc4F)N3c3cc(F)c(N4CCCCC4)c(F)c3)c(F)cc2[nH]1)C(C)C [Example 4.52, methyl {(2S)-1-[(2S)-2-{5-[(2S,5R)-1-[3,5-difluoro-4-(piperidin-1-yl)phenyl]-5-{6-fluoro-2-[(2S)-1-{(2S)-2-[(methoxycarbonyl)amino]-3-methylbutanoyl}pyrrolidin-2-yl]-1H-benzimidazol-5-yl}pyrrolidin-2-yl]-6-fluoro-1H-benzimidazol-2-yl}pyrrolidin-1-yl]-3-methyl-1-oxobutan-2-yl}carbamate] | < 0.1 |
| COC(=O)N[C@H](C(=O)N1CCC[C@H]1c1nc2cc([C@H]3CC[C@H](c4cc5nc([C@@H]6CCCN6C(=O)[C@@H](NC(=O)OC)C(C)C)[nH]c5cc4F)N3c3cc(F)c(N4CCC5(CCCCC5)CC4)c(F)c3)c(F)cc2[nH]1)C(C)C [Example 4.53, methyl {(2S)-1-[(2S)-2-{5-[(2R,5R)-1-[4-(3-azaspiro[5.5]undec-3-yl)-3,5-difluorophenyl]-5-{6-fluoro-2-[(2S)-1-{(2S)-2-[(methoxycarbonyl)amino]-3-methylbutanoyl}pyrrolidin-2-yl]-1H-benzimidazol-5-yl}pyrrolidin-2-yl]-6-fluoro-1H-benzimidazol-2-yl}pyrrolidin-1-yl]-3-methyl-1-oxobutan-2-yl}carbamate] | < 0.1 |
| COC(=O)N[C@H](C(=O)N1CCC[C@H]1c1nc2cc([C@H]3CC[C@H](c4cc5nc([C@@H]6CCCN6C(=O)[C@@H](NC(=O)OC)C(C)C)[nH]c5cc4F)N3c3cc(F)c(N4CCC(C5CCCCC5)CC4)c(F)c3)c(F)cc2[nH]1)C(C)C [Example 4.54, methyl {(2S)-1-[(2S)-2-{5[(2R,5R)-1-[4-(4-cyclohexylpiperidin-1-yl)-3,5-difluorophenyl]-5-{6-fluoro-2-[(2S)-1-{(2S)-2-[(methoxycarbonyl)amino]-3-methylbutanoyl}pyrrolidin-2-yl]-1H-benzimidazol-5-yl}pyrrolidin-2-yl]-6-fluoro-1H-benzimidazol-2-yl}pyrrolidin-1-yl]-3-methyl-1-oxobutan-2-yl}carbamate] | < 0.1 |
| COC(=O)N[C@H](C(=O)N1CCC[C@H]1c1nc2cc([C@H]3CC[C@H](c4cc5nc([C@@H]6CCCN6C(=O)[C@@H](NC(=O)OC)C(C)C)[nH]c5cc4F)N3c3cc(F)c(N4CCO[C@@H](c5ccccc5)C4)c(F)c3)c(F)cc2[nH]1)C(C)C [Example 4.55, methyl {(2S)-1-[(2S)-2-{5-[(2R,5R)-1-{3,5-difluoro-4-[(2S)-2-phenylmorpholin-4-yl]phenyl}-5-{6-fluoro-2-[(2S)-1-{(2S)-2-[(methoxycarbonyl)amino]-3-methylbutanoyl}pyrrolidin-2-yl]-1H-benzimidazol-5-yl}pyrrolidin-2-yl]-6-fluoro-1H-benzimidazol-2-yl}pyrrolidin-1-yl]-3-methyl-1-oxobutan-2-yl}carbamate] | < 0.1 |
| COC(=O)N[C@H](C(=O)N1CCC[C@H]1c1nc2cc([C@H]3CC[C@H](c4cc5nc([C@@H]6CCCN6C(=O)[C@@H](NC(=O)OC)C(C)C)[nH]c5cc4F)N3c3cc(F)c(N4CCC(c5ccc(F)cc5F)CC4)c(F)c3)c(F)cc2[nH]1)C(C)C [Example 4.56, methyl {(2S)-1-[(2S)-2-{5-[(2R,5R)-1-{4-[4-(2,4-difluorophenyl)piperidin-1-yl]-3,5-difluorophenyl}-5-{6-fluoro-2-[(2S)-1-{(2S)-2-[(methoxycarbonyl)amino]-3-methylbutanoyl}pyrrolidin-2-yl]-1H-benzimidazol-5-yl}pyrrolidin-2-yl]-6-fluoro-1H-benzimidazol-2-yl}pyrrolidin-1-yl]-3-methyl-1-oxobutan-2-yl}carbamate] | < 0.1 |
| COC(=O)N[C@H](C(=O)N1CCC[C@H]1c1nc2cc([C@H]3CC[C@H](c4cc5nc([C@@H]6CCCN6C(=O)[C@@H](NC(=O)OC)C(C)C)[nH]c5cc4F)N3c3cc(F)c(N4CCC(c5ccc(F)cc5)CC4)c(F)c3)c(F)cc2[nH]1)C(C)C [Example 4.57, methyl {(2S)-1-[(2S)-2-{5-[(2R,5R)-1-{3,5-difluoro-4-[4-(4-fluorophenyl)piperidin-1-yl]phenyl}-5-{6-fluoro-2-[(2S)-1-{(2S)-2-[(methoxycarbonyl)amino]-3-methylbutanoyl}pyrrolidin-2-yl]-1H-benzimidazol-5-yl}pyrrolidin-2-yl]-6-fluoro-1H-benzimidazol-2-yl}pyrrolidin-1-yl]-3-methyl-1-oxobutan-2-yl}carbamate] | < 0.1 |
| COC(=O)N[C@H](C(=O)N1CCC[C@H]1c1nc2cc([C@H]3CC[C@H](c4ccc5[nH]c([C@@H]6CCCN6C(=O)[C@@H](NC(=O)OC)C(C)C)nc5c4)N3c3cc(F)c(N4CCN(c5ccccc5)CC4)c(F)c3)ccc2[nH]1)C(C)C [Example 4.58, methyl {(2S)-1-[(2S)-2-{5-[(2R,5R)-1-[3,5-difluoro-4-(4-phenylpiperazin-1-yl)phenyl]-5-{2-[(2S)-1-{(2S)-2-[(methoxycarbonyl)amino]-3-methylbutanoyl}pyrrolidin-2-yl]-1H-benzimidazol-5-yl}pyrrolidin-2-yl]-1H-benzimidazol-2-yl}pyrrolidin-1-yl]-3-methyl-1-oxobutan-2-yl}carbamate] | < 0.1 |
